Where two headings read alike, the source gives them in different places.
Key:
MV-3 cells = test: T-cell - TCB - MV3 killing assay (MCSP-TCB, RFP object count by Incucyte); format: cell-based, human; conditions: 5 d; for Emax: read-out: MSCP TCB killing MV-3 cells 5 d Emax; for EC50: primary human T-cells + MCSP-TCB, MV-3 RFP cells, read-out: MSCP TCB killing MV-3 cells 5 d EC50
primary human T-cells [1] = test: Proliferation assay after 5 days (CellTiter-Glo, CD3 stimulation; PBS counter screen); format: cell-based; conditions: CD3 stimulation; for Emax / Emax proliferation (% activation): 5 days, normalized to reference compound A1 as stimulator control = 100%, DMSO neutral control; for Emax: read-out: Emax proliferation (% activation); for EC50: primary human T-cells, CellTiter-Glo after 5 days, EC50 of fitted sigmoidal curve, read-out: Tcell Proliferation CD3 EC50
Outline: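 Luminescent ATP detection (CellTiter-Glo 2.0) quantified cell number 5 days after compounds went onto medium-only plates. Wells showing visible toxicity or precipitate were noted beforehand, and compounds that stimulated unstimulated cells or lowered viability were flagged.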

hDGKzeta(1-928)-N-His = hDGKzeta(1-928)-N-His (Homo sapiens (Human), UniProt Q13574); test: DGKzeta ADP Glo assay (in vitro DGK inhibition); format: biochemical; conditions: DLG 125 uM, ATP 50 μM, DGK ζ 2 nM, 1 hour reaction
hDGKzeta(1-928)-N-His, sequence (Q13574 whole entry): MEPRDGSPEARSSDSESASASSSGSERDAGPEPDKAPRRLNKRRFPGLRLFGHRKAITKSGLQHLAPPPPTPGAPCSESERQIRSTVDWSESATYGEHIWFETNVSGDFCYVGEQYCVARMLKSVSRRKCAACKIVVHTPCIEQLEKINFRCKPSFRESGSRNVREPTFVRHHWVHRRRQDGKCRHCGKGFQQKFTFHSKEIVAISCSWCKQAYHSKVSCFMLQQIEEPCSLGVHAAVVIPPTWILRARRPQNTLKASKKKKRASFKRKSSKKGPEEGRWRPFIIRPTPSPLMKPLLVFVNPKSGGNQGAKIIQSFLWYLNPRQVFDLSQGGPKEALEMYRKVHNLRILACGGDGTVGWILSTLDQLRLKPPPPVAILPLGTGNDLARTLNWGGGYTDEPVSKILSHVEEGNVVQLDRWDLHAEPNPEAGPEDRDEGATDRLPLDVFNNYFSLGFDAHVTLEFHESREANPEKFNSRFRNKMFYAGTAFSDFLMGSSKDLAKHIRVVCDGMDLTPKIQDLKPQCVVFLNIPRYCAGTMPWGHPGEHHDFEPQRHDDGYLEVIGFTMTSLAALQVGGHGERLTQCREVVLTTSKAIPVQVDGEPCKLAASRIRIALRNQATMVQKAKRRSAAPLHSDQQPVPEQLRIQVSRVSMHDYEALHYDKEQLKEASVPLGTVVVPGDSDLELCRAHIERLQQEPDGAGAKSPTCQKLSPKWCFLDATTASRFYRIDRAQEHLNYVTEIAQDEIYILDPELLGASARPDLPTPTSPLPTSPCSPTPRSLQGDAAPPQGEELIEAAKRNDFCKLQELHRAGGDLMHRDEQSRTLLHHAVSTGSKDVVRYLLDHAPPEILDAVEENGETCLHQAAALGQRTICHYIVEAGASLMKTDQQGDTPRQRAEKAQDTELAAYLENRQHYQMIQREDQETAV
Outline: (§1)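 His-tagged human DGKα (4 nM) and DGKζ (2 nM) phosphorylate DLG presented in DLG/PS/PC liposomes using ATP; reaction run 1 hour. ADP formed measured by ADP-Glo luminescence. Compounds tested as 11-point 1:3 dose response […], 2% DMSO final.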

primary human T-cells [2] = test system: primary human T-cells
hDGKalpha(1-735)-N-His = hDGKalpha(1-735)-N-His (Homo sapiens (Human), UniProt P23743); test: DGKalpha ADP Glo assay (in vitro DGK inhibition); format: biochemical; conditions: DLG 125 uM, ATP 25 μM, DGK α 4 nM, 1 hour reaction
hDGKalpha(1-735)-N-His, sequence (P23743 whole entry): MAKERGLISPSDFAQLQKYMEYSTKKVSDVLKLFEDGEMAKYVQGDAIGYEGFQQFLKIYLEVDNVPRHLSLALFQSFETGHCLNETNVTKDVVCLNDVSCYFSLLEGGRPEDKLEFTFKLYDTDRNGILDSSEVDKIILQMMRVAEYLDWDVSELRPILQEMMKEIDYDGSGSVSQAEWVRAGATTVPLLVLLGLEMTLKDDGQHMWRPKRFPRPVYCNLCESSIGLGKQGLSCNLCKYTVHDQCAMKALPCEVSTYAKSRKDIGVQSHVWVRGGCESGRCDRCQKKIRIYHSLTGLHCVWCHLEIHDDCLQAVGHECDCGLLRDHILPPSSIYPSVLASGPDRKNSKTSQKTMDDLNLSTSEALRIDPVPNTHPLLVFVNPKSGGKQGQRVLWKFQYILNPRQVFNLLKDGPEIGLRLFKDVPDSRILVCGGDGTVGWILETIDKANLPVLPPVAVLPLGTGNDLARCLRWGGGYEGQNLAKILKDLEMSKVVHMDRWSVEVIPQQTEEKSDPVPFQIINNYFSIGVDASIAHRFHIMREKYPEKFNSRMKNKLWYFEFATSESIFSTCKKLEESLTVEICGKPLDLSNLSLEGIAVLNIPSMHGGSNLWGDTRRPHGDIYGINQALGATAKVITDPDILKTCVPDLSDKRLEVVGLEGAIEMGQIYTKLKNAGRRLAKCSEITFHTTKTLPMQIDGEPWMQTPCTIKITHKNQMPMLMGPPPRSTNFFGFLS
Outline: as §1

[3] = Homo sapiens, MV-3, 120 h, normalized: MCSP-TCB only = neutral control, 20 μM reference compound A1 = 100%

SMILES | Emax (MV-3 cells; [3]) [%] | EC50 (MV-3 cells; Homo sapiens, MV-3, 120 h) [nM] | Emax (primary human T-cells [1]; Homo sapiens, T-cell, 120 h) [%] | EC50 (primary human T-cells [1]; Homo sapiens, T-cell, 120 h) [nM] | IC50 (hDGKzeta(1-928)-N-His) [nM] | EC50 (primary human T-cells [2]) [nM] | IC50 (hDGKalpha(1-735)-N-His) [nM] | MSCP TCB killing MV-3 cells 5 d Emax (MV-3 cells; normalized: MCSP-TCB only = neutral control, 20 μM reference compound A1 = 100%) [%] | EC50 (MV-3 cells) [nM] | Emax proliferation (% activation) (primary human T-cells [1]) | EC50 (primary human T-cells [1]) [nM]
CC(C)(CO)c1nnc(-c2cc3c(cc2F)S(=O)(=O)C[C@H](N)C(=O)N3Cc2ccc(Cl)cc2)o1 [Example 86, (3R)-3-amino-5-[(4-chlorophenyl)methyl]-8-fluoro-7-[5-(2-hydroxy-1,1-dimethyl-ethyl)-1,3,4-oxadiazol-2-yl]-1,1-dioxo-2,3-dihydro-1λ^6,5-benzothiazepin-4-one] | 100 | 520 | 95 | 777 | 685 | 4180 | 643 | – | – | – | –
CC(C)(CO)c1nc(-c2cc3c(cc2F)S(=O)(=O)C[C@H](N)C(=O)N3Cc2ccc(Cl)cc2)no1 [Example 303, (3R)-3-amino-5-[(4-chlorophenyl)methyl]-8-fluoro-7-[5-(2-hydroxy-1,1-dimethyl-ethyl)-1,2,4-oxadiazol-3-yl]-1,1-dioxo-2,3-dihydro-1λ^6,5-benzothiazepin-4-one] | 92 | 400 | 140 | 605 | 251 | 1070 | 301 | – | – | – | –
CN1CCCC(F)(c2nnc(-c3ccc4c(c3)N(Cc3ccc(Cl)cc3)C(=O)[C@@H](N)CS4(=O)=O)o2)C1 (stereo partly drawn) [Example 384, (3R)-3-amino-5-[(4-chlorophenyl)methyl]-7-[5-(3-fluoro-1-methyl-3-piperidyl)-1,3,4-oxadiazol-2-yl]-1,1-dioxo-2,3-dihydro-1λ^6,5-benzothiazepin-4-one] | 110 | 990 | 112 | 698 | 2250 | 792 | 4580 | – | – | – | –
CC(C)(C)c1nnc(-c2cc3c(cc2F)S(=O)(=O)C[C@H](NC(=O)CN)C(=O)N3Cc2ccc(Cl)cc2)o1 [Example 266, 2-amino-N-[(3R)-7-(5-tert-butyl-1,3,4-oxadiazol-2-yl)-5-[(4-chlorophenyl)methyl]-8-fluoro-1,1,4-trioxo-2,3-dihydro-1λ^6,5-benzothiazepin-3-yl]acetamide] | 76 | 20 | 137 | 77.5 | 40100 | 214 | 54500 | – | – | – | –
N[C@H]1CS(=O)(=O)c2ccc(-c3nnc(CC(F)(F)F)o3)cc2N(Cc2ccc(OC(F)(F)F)cc2)C1=O [Example 416, (3R)-3-amino-1,1-dioxo-7-[5-(2,2,2-trifluoroethyl)-1,3,4-oxadiazol-2-yl]-5-[[4-(trifluoromethoxy)phenyl]methyl]-2,3-dihydro-1λ^6,5-benzothiazepin-4-one] | 95 | 530 | 58 | 402 | 1680 | 369 | 1450 | – | – | – | –
CC(C)(C)c1nnc(-c2cc3c(cc2F)[S+]([O-])C[C@H](N)C(=O)N3Cc2ccc(OC(F)(F)F)cc2)o1 (single isomer, unassigned; epimer a) [Example 452] | – | – | – | 468 | 400 | 121 | 340 | 81 | 230 | 165 | –
N[C@H]1C[S+]([O-])c2cc(F)c(-c3noc(N4CCOC5CC54)n3)cc2N(Cc2ccc(Cl)cc2)C1=O (single isomer, unassigned; epimer a) [Example 207] | 90 | 160 | – | – | 193 | 4380 | > 62500 | – | – | 280 | 1860
Cc1cc(S(C)(=O)=O)ccc1-c1nc(-c2cc3c(cc2F)S(=O)(=O)C[C@H](N)C(=O)N3Cc2ccc(Cl)cc2)no1 [Example 314, (3R)-3-amino-5-[(4-chlorophenyl)methyl]-8-fluoro-7-[5-(2-methyl-4-methylsulfonyl-phenyl)-1,2,4-oxadiazol-3-yl]-1,1-dioxo-2,3-dihydro-1λ^6,5-benzothiazepin-4-one] | – | – | 78 | 155 | 150 | 234 | 6150 | – | – | – | –
CC(N)(c1nc(-c2cc3c(cc2F)S(=O)(=O)C[C@H](N)C(=O)N3Cc2ccc(Cl)cc2)no1)C(F)(F)F (stereo partly drawn) [Example 297, (3R)-3-amino-7-[5-(1-amino-2,2,2-trifluoro-1-methyl-ethyl)-1,2,4-oxadiazol-3-yl]-5-[(4-chlorophenyl)methyl]-8-fluoro-1,1-dioxo-2,3-dihydro-1λ^6,5-benzothiazepin-4-one] | – | – | 157 | 219 | 357 | 169 | 373 | – | – | – | –

From patent US20240368150A1 (Hoffmann-La Roche Inc., priority 2021, published 2024)
